Molecules are shown by their SMILES.

For one test, the target named is T1, Gal-3 (Homo sapiens, UniProt P17931).
T1 construct: made in house
As to the kind of experiment: competitive fluorescence polarisation assay, Gal-3. Type of test: binding. To be noted: for Kd: competitive FP, mean ± SEM of n = 4 to 8, 20 °C, read-out: Kd Gal-3; for Gal-3 selectivity ratio Kd (Gal-3)/Kd (Gal-8N): ratio of FP Kd values. As for the experimental part:
(§1) Human galectins-1, -3, and -8N were expressed and purified as described previously[8],[23],[24]. Competitive fluorescence polarization assays were performed with a PHERAstar FS plate reader with software PHERAstar Mars version 2.10 R3 (BMG, Offenburg, Germany) and Tecan Spark multimode microplate reader (Tecan Trading AG, Switzerland), where a fluorescence anisotropy of fluorescent-tagged probes was measured by excitation at 485 nm and emission at 520 nm. Experiments were performed at 20 °C with Gal-1 at 0.5 µM, Gal-3 at 0.2 µM, and Gal-8N at 0.4 µM. Fluorescent probes used for experiments were 3,3′-dideoxy-3-[4-(fluorescein-5-yl-carbonylaminomethyl)-1H-1,2,3-triazol-1-yl]-3′-(3,5-di-methoxybenzamido)-1,1′-sulfanediyl-di-β-D-galactopyranoside at 0.02 µM for Gal-1 and -3 and 2-(fluorescein-5-yl-carbonylamino)ethyl β-D-galactopyranosyl(1-4)-2-acetamido-2-deoxy-β-D-glucopyranosyl(1–3)-β-D-galactopyranosyl(1–4)-β-D-glucopyranoside at 0.1 µM for Gal-8N in each well. Compounds were first dissolved in pure DMSO at 20 mM concentration and later diluted in 5% DMSO in PBS solution to 5-7 different concentrations. Each concentration was tested in duplicate. The highest inhibitor concentrations tested were 1.5 mM. The average values of Kd and SEM (standard error mean) were calculated from 4 to 8 duplicate measurements, showing 10–90% inhibition.

The next test has as its target T2, Gal-8C (Homo sapiens, UniProt O00214).
T2 construct: than to the C-terminal domain (Gal-8C)
T2 sequence (O00214 187-317 limits assumed): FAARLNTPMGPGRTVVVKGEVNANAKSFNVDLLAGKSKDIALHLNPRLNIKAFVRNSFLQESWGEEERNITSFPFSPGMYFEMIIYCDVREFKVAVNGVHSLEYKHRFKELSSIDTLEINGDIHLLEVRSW
As to the kind of experiment: competitive fluorescence polarisation assay, Gal-8C. To be noted: for Kd: competitive FP, mean ± SEM of n = 4 to 8; for Gal-8C selectivity ratio Kd (Gal-8C)/Kd (Gal-8N): ratio of FP Kd values. Type of test: binding.

A further test has as its target T3, Gal-8N (Homo sapiens, UniProt O00214).
T3 construct: consisting of residues 4-158 was produced by Lund Protein Production Platform; made in house; host or cells: E. coli TUNER(DE3)
T3 sequence (O00214 4-158): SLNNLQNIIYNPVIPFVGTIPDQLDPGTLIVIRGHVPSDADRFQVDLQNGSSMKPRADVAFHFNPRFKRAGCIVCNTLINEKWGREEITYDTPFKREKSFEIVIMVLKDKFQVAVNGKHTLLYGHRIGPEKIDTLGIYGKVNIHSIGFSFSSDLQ
As to the kind of experiment: ligand efficiency (LE) and ligand-lipophilicity efficiency (LLE) calculations. Particulars: for LLE: from Gal-8N Kd and clogP; for LE: from Gal-8N Kd and number of non-hydrogen atoms.

The target in test [1] is T4, Gal-8N (galectin-8 N-terminal domain) (Homo sapiens, UniProt O00214).
T4 construct: made in house
T4 sequence (O00214 19-152 limits assumed): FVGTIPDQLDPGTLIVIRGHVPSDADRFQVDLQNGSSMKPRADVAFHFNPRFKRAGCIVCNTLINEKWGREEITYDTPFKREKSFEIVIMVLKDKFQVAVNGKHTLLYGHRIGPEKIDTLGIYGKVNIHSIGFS
As to the kind of experiment: competitive fluorescence polarisation assay, Gal-8N. Type of test: binding. Particulars: competitive FP, mean ± SEM of n = 4 to 8, 20 °C; read-out: Kd Gal-8N. On the procedure:
as §1
Background: Fluorescence polarisation rises when a labelled molecule tumbles more slowly, as on binding a larger partner.

Another test addresses T5, Gal-1 (Homo sapiens, UniProt P09382).
T5 construct: made in house
As to the kind of experiment: competitive fluorescence polarisation assay, Gal-1. Type of test: binding. Particulars: for Kd: competitive FP, mean ± SEM of n = 4 to 8, 20 °C; for Gal-1 selectivity ratio Kd (Gal-1)/Kd (Gal-8N): ratio of FP Kd values. As for the experimental part: as §1

T1 sequence (P17931 whole entry): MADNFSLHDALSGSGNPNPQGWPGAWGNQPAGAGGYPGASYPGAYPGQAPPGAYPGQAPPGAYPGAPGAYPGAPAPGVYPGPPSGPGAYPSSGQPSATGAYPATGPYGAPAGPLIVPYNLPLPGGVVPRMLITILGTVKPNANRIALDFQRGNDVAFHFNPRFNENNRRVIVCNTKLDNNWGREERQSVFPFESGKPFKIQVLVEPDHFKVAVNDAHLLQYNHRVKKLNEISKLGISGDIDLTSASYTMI
T5 sequence (P09382 whole entry): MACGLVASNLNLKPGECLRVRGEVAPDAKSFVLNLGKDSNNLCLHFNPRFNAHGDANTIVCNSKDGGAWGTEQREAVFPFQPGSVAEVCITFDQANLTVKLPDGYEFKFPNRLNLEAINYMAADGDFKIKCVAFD

One may read the Kd as the equilibrium constant for the complex coming apart. Consider `COC(=O)c1cccc(-n2cc(CO[C@@H]3[C@@H](OCc4nc5ccc(C(=O)O)cc5n4C)[C@@H](O)[C@@H](CO)O[C@@H]3Sc3ccc(Cl)c(Cl)c3)nn2)c1` [Compound 15b], for which, on Gal-3, the Kd was 22 ± 5.5 µM and the “Gal-3 selectivity ratio Kd (Gal-3)/Kd (Gal-8N)” value (from here on “Gal-3 selectivity ratio Kd”) was 4.9. At Gal-8C, the affinity, expressed as Kd, was 568 ± 23 µM and the “Gal-8C selectivity ratio Kd (Gal-8C)/Kd (Gal-8N)” value (“Gal-8C selectivity ratio Kd” below) amounted to 126. Further, at Gal-8N, the LLE is given as 0.0722 and the LE was 0.146 (kcal/mol)/heavy atom. Besides, in test [1], the Kd stood at 4.5 ± 0.24 µM. Besides, on Gal-1, the Kd is 104 ± 7.4 µM and the “Gal-1 selectivity ratio Kd (Gal-1)/Kd (Gal-8N)” value (shortened to “Gal-1 selectivity ratio Kd”) was found to be 23.
Turning to `COC(=O)c1ccc(-n2cc(CO[C@@H]3[C@@H](OCc4nc5ccc(C(=O)O)cc5n4C)[C@@H](O)[C@@H](CO)O[C@@H]3Sc3ccc(Cl)c(Cl)c3)nn2)cc1` [Compound 15c], at Gal-3, the Kd came out at 23 ± 4.9 µM and the “Gal-3 selectivity ratio Kd” value was found to be 5.6. Further, on Gal-8C, the Kd is 350 ± 60 µM and the “Gal-8C selectivity ratio Kd” value is listed as 85. Also, on Gal-8N, the LLE was 0.109 and the LE was 0.147 (kcal/mol)/heavy atom. Moreover, the Kd in test [1] turned out to be 4.1 ± 0.33 µM. At Gal-1, the affinity, expressed as Kd, was 99 ± 3.1 µM and the “Gal-1 selectivity ratio Kd” value was found to be 24.
With `Cn1c(CO[C@H]2[C@@H](O)[C@@H](CO)O[C@H](Sc3ccc(Cl)c(Cl)c3)[C@@H]2OCc2cn(-c3ccccc3C(=O)O)nn2)nc2ccc(C(=O)O)cc21` [Compound 16a], on Gal-3, the Kd amounted to 1.2 ± 0.2 µM and the “Gal-3 selectivity ratio Kd” value is 2.6. Besides, at Gal-8C, the Kd came to 159 ± 4 µM and the “Gal-8C selectivity ratio Kd” value amounted to 346. Also, on Gal-8N, the LLE is given as 1.26 and the LE is 0.177 (kcal/mol)/heavy atom. In addition, the Kd in test [1] was determined as 0.46 ± 0.03 µM. Further, at Gal-1, the Kd is 26 ± 1.1 µM and the “Gal-1 selectivity ratio Kd” value is reported as 57.
For `Cn1c(CO[C@H]2[C@@H](O)[C@@H](CO)O[C@H](Sc3ccc(Cl)c(Cl)c3)[C@@H]2OCc2cn(-c3cccc(C(=O)O)c3)nn2)nc2ccc(C(=O)O)cc21` [Compound 16b], at Gal-3, the Kd came out at 2.9 ± 0.4 µM and the “Gal-3 selectivity ratio Kd” value is 4.5. Moreover, on Gal-8C, binding was put at a Kd of 100 ± 2 µM and the “Gal-8C selectivity ratio Kd” value stood at 154. Also, on Gal-8N, the LLE is recorded as 1.11 and the LE is reported as 0.173 (kcal/mol)/heavy atom. Also, in test [1], the Kd was 0.65 ± 0.05 µM. At Gal-1, the Kd was found to be 37 ± 1.1 µM and the “Gal-1 selectivity ratio Kd” value came to 57.
Turning to `Cn1c(CO[C@H]2[C@@H](O)[C@@H](CO)O[C@H](Sc3ccc(Cl)c(Cl)c3)[C@@H]2OCc2cn(-c3ccc(C(=O)O)cc3)nn2)nc2ccc(C(=O)O)cc21` [Compound 16c], on Gal-3, the Kd is 6.2 ± 1.1 µM and the “Gal-3 selectivity ratio Kd” value is on record as 5.6. On Gal-8C, the Kd is 201 ± 37 µM and the “Gal-8C selectivity ratio Kd” value worked out at 183. Further, at Gal-8N, the LLE is 0.888 and the LE is reported as 0.167 (kcal/mol)/heavy atom. Also, in test [1], the Kd amounted to 1.1 ± 0.07 µM. At Gal-1, the Kd is 45 ± 0.8 µM and the “Gal-1 selectivity ratio Kd” value was found to be 41.
With `Cn1c(CO[C@H]2[C@@H](O)[C@@H](CO)O[C@H](Sc3ccc(Cl)c(Cl)c3)[C@@H]2OCC2CCCCC2)nc2ccc(C(=O)O)cc21` [Compound 19], at Gal-3, the Kd came out at 21 ± 1.5 µM and the “Gal-3 selectivity ratio Kd” value stood at 5.1. Moreover, at Gal-8C, the Kd is 662 ± 27 µM and the “Gal-8C selectivity ratio Kd” value is reported as 161. At Gal-8N, the LLE was -0.926 and the LE is recorded as 0.180 (kcal/mol)/heavy atom. The Kd in test [1] was determined as 4.1 ± 0.61 µM. Besides, at Gal-1, the affinity, expressed as Kd, was 76 ± 15 µM and the “Gal-1 selectivity ratio Kd” value was found to be 18.5.

The values above are taken from paper PMC11850616, “Nanomolar inhibitor of the galectin-8 N-terminal domain binds via a non-canonical cation-π interaction” (Communications Chemistry, 2025).
